In PubChem BioAssay AID1259333 (Broad Institute, 2017):
Values joined by “and” are separate entries in the source; they are usually repeats but may differ in a detail not shown here. Equal values may be shown once. Active and inactive are the calls of the source. The rule behind the calls is not given here; tested in parental BL2 cells. Numbered stars: 1 amine (or outer) side, 2 acyl side, 3 side chain; on linkers, the order of the positions; unused ones are H or OH. Bridge positions count the residues as written; N and C are the ends. Square brackets hold non-standard residues; d marks the D form. Peptide text beside a SMILES is read from it. I, II: the chains in the order shown. Actinocin(9to1) = Cc1c2oc3c(C)ccc(C(=O)[*:1])c3nc-2c(C(=O)[*:2])c(N)c1=O; NMeV = CN[CH](C(=O)O)C(C)C; Sar = CNCC(=O)O

Each molecule was assayed on cytotoxicity, CellTiter-Glo ATP luminescence (assay: loss of cell viability by ATP content – CellTiter-Glo, cytotoxicity control, dose response (AID 1259333)).
For `COc1ccc(/C=C2/CCC(CN3CCOCC3)C2=O)cc1` (stereo not given), the AC50 was 7.4 µM. With `N#C[C@H]1[C@@H](c2ccc(C#CC3CCCCC3)cc2)[C@@H](CO)N1C(=O)Nc1ccc(F)cc1` the AC50 was > 20 µM (inactive). `CC[C@@]1(O)C(=O)OCc2c1cc1n(c2=O)Cc2cc3ccccc3nc2-1` showed an AC50 of 9.41 µM. `O=[N+]([O-])c1ccc(N2CCOCC2)c2c1no[n+]2[O-]` gave an AC50 of 2.85 µM. In the case of `C[C@@H]1CN([C@H](C)CO)C(=O)c2c(c3ccccc3n2C)-c2ccccc2CO[C@H]1CN(C)C(=O)c1cc(Cl)cc(Cl)c1`, the AC50 was > 20 µM (inactive). `CC(C)[C@H](CO)Nc1nc(Nc2cccc(Cl)c2)c2ncn(C(C)C)c2n1` was tested, and the AC50 was 2.86 µM. Work on `COc1ccc(CC2C(=O)NC(C)C(=O)N(C)C3Cc4ccc(cc4)Oc4cc(ccc4O)CC(C(=O)NC(C)C(=O)NC(C)C(=O)N2C)N(C)C3=O)cc1` (stereo not given) yielded an AC50 of 10.8 µM. `COc1ccc(NC(=O)O/N=C/c2c(C)nn(C(C)(C)C)c2C)cc1` showed an AC50 of 7.85 µM. In the case of `CC(C)C#Cc1ccc([C@H]2[C@@H](CO)N(C(=O)c3ccccn3)[C@H]2C#N)cc1`, the AC50 was > 20 µM (inactive). In the case of `COc1ccc(S(=O)(=O)Nc2ccc3c(c2)C(=O)N([C@@H](C)CO)C[C@H](C)[C@H](CN(C)Cc2ccc(C(F)(F)F)cc2)OCCCC[C@H](C)O3)cc1`, the AC50 was > 20 µM (inactive). With `CCN(CC)C(=O)c1ccc(NC(=O)Nc2ccccc2F)cc1` the AC50 was 3.45 µM. With `c1ccc2nc(-c3nc4ccccc4o3)ccc2c1` the AC50 was > 20 µM (inactive). With `N#C[C@@H]1[C@H](c2ccc(C#CC3CCCCC3)cc2)[C@@H](CO)N1S(=O)(=O)c1ccccc1` the AC50 was 7.22 µM. `COC(=O)c1ccc2nc(NC(=O)C(C)(C)C)sc2c1` was tested, and the AC50 was 7.83 µM. Work on `Cc1cc(C)cc(N2C(=O)CC(Sc3nnnn3-c3ccccc3)C2=O)c1` (stereo not given) yielded an AC50 of 4.02 µM. `O=C(Cn1ncc(Cl)c(Cl)c1=O)NC1CCCCC1` was tested, and the AC50 was 9.64 µM. In the case of `NS(=O)(=O)c1cc2c(cc1C(F)(F)F)NC(Cc1ccccc1)NS2(=O)=O` (stereo not given), the AC50 was > 20 µM (inactive). For `CN(C)c1ccc(C(=C2C=CC(=[N+](C)C)C=C2)c2ccc(N(C)C)cc2)cc1`, the AC50 was 0.492 µM. For `COc1ccc(S(=O)(=O)Nc2ccc3c(c2)C(=O)N([C@@H](C)CO)C[C@@H](C)[C@@H](CN(C)Cc2ccc(C(F)(F)F)cc2)OCCCC[C@H](C)O3)cc1`, the AC50 was > 20 µM (inactive). With `C[C@@H]1CN([C@@H](C)CO)C(=O)Cc2cc(NC(=O)Cc3cn(C)c4ccccc34)ccc2O[C@H]1CN(C)Cc1ccc(C(F)(F)F)cc1` the AC50 was > 20 µM (inactive). For `COc1ccc(S(=O)(=O)Nc2ccc3c(c2)C(=O)N([C@H](C)CO)C[C@@H](C)[C@@H](CN(C)Cc2ccc(C(F)(F)F)cc2)OCCCC[C@H](C)O3)cc1`, the AC50 was > 20 µM (inactive). Molecule `CN(C)C(=S)SSC(=S)N(C)C` has an AC50 of 1.36 µM. Molecule `COc1cccc(NC(=O)N2CC(=O)N3[C@H](CO)[C@@H](c4ccc(C#CCC5CCCC5)cc4)[C@H]3C2)c1` has an AC50 of 4.13 µM. For `CCC(C)[C@H]1O[C@]2(CC[C@@H]1C)C[C@@H]1C[C@@H](C/C=C(\C)[C@@H](OC3C[C@H](OC)C(O[C@H]4C[C@H](OC)[C@@H](O)[C@H](C)O4)[C@H](C)O3)[C@@H](C)/C=C/C=C3\CO[C@@H]4[C@H](O)C(C)=C[C@@H](C(=O)O1)[C@]34O)O2` (stereo not given in full), the AC50 was > 20 µM (inactive). Molecule `C[C@@H]1CCCCO[C@@H](CN(C)Cc2ccc(Cl)c(Cl)c2)[C@H](C)CN([C@H](C)CO)C(=O)c2cc(NS(=O)(=O)c3cccs3)ccc2O1` has an AC50 of 8.68 µM. With `COc1ccc(/C=N/Nc2ncccc2[N+](=O)[O-])c(OC)c1` the AC50 was 5.79 µM. For `CC(=O)OC1C(=O)OCC23CCC4(C)OC4C2OC2CC(OC(=O)C=CC=CC(=O)OCCC1C)C3(C)C21CO1` (stereo not given), the AC50 was > 7 µM (inactive). `CCS(=O)(=O)N1Cc2ccccc2CC1C(=O)Nc1nc2ccccc2s1` (stereo not given) gave an AC50 of 5.74 µM. With `COc1ccc2c3c(n(C)c2c1)[C@H](CO)N(C(=O)Nc1ccc(F)cc1)CC31CCN(C(=O)c2ccc3c(c2)OCO3)CC1` the AC50 was > 20 µM (inactive). `COc1cc(C(C)C)c2c(c1)S(=O)(=O)N(COc1cc(=O)n3cccc(OCCN4CCCCC4)c3n1)C2=O` gave an AC50 of 10.5 µM. With `Cc1ccc(-c2cc(C(=O)N3CC(C)OC(C)C3)c3ccccc3n2)o1` (stereo not given) the AC50 was > 20 µM (inactive). `Cc1c2oc3c(C)ccc(C(=O)OC(C)C4NC(=O)C(C(C)C)N(C)C(=O)CN(C)C(=O)C5CCCN5C(=O)C(C(C)C)NC4=O)c3nc-2c(C(=O)OC(C)C2NC(=O)C(C(C)C)N(C)C(=O)CN(C)C(=O)C3CCCN3C(=O)C(C(C)C)NC2=O)c(N)c1=O` (stereo not given) (I: cyclo([Sar][NMeV]TVP) / II: cyclo([Sar][NMeV]TVP); linker I:3-II:3 via Actinocin(9to1); configuration not given here) was tested, and the AC50 was > 20 µM (inactive). `C[n+]1c(-c2ccccc2)cc2c(=Cc3ccc([N+](=O)[O-])cc3)c3ccccc3n21` showed an AC50 of 9.92 µM. With `Cc1noc(C)c1S(=O)(=O)Nc1ccc2c(c1)C(=O)N([C@@H](C)CO)C[C@H](C)[C@@H](CN(C)C(=O)Nc1cccc3ccccc13)OCCCC[C@H](C)O2` the AC50 was > 20 µM (inactive). Molecule `COc1cc(/C=N/n2cnnc2)ccc1OC(=O)c1ccncc1` has an AC50 of 8.07 µM. For `C[n+]1c2n(c3ccccc31)N=C(c1ccc(-c3ccccc3)cc1)CS2`, the AC50 was 6.3 µM. With `CC1CC(C)C(=O)C(C(O)CC2CC(=O)NC(=O)C2)C1` (stereo not given) the AC50 was > 20 µM (inactive). For `O=C1NC2C(=CC(O)C(O)C2O)c2cc3c(c(O)c21)OCO3` (stereo not given), the AC50 was 10 µM. For `N#C[C@H]1[C@H](c2ccc(C#Cc3ccccc3F)cc2)[C@@H](CO)N1C(=O)c1cccnc1`, the AC50 was 11.2 µM. In the case of `O=S(=O)(c1cccc2cnccc12)N1CCNCC1`, the AC50 was 7.09 µM. `Cn1cc(C2=C(c3cn(CCCSC(=N)N)c4ccccc34)C(=O)NC2=O)c2ccccc21` gave an AC50 of 0.388 µM. `C[C@H]1O[C@@H](O[C@H]2[C@@H](O)C[C@H](O[C@H]3[C@@H](O)C[C@H](O[C@H]4CC[C@]5(C)C6C[C@@H](O)[C@]7(C)[C@@H](C8=CC(=O)OC8)CC[C@]7(O)C6CC[C@@H]5C4)O[C@@H]3C)O[C@@H]2C)C[C@H](O)[C@@H]1O` (stereo not given in full) gave an AC50 of 2.71 µM. In the case of `COC(=O)c1ccccc1-c1c2ccc(=N)cc-2oc2cc(N)ccc12`, the AC50 was > 20 µM (inactive). Molecule `Nc1cccc2nc3ccccc3cc12` has an AC50 of 1.96 µM. `COc1ccc(C#Cc2ccc([C@H]3[C@@H](CO)N4CCCCN(S(=O)(=O)c5cn(C)cn5)C[C@H]34)cc2)cc1` showed an AC50 of 10.8 µM. `C[C@@H]1CN([C@@H](C)CO)C(=O)c2c(c3ccccc3n2C)-c2ccccc2CO[C@H]1CN(C)C(=O)Nc1cccc(C(F)(F)F)c1` gave an AC50 of 1.4 µM. In the case of `O=C(c1ccc(Nc2nccc(-c3cc4ccccc4s3)n2)cc1)N1CCC(N2CCCC2)CC1`, the AC50 was 3.83 µM and 1.17 µM. Molecule `C[C@H](CO)N1C[C@H](C)[C@@H](CN(C)Cc2ccc(Oc3ccccc3)cc2)Oc2c(NC(=O)CCC(F)(F)F)cccc2C1=O` has an AC50 of 6.84 µM. Work on `CC1OC(OC2C(O)CC(OC3C(O)CC(OC4CCC5(C)C(CCC6C5CCC5(C)C(C7=CC(=O)OC7)C(O)CC65O)C4)OC3C)OC2C)CC(O)C1O` (stereo not given) yielded an AC50 of 0.625 µM. `CC1=NNC(=O)C1Br` (stereo not given) was tested, and the AC50 was 9.62 µM. With `C[C@@H]1CCCCO[C@H](CN(C)Cc2ccc(C(F)(F)F)cc2)[C@@H](C)CN([C@@H](C)CO)C(=O)c2cc(NC(=O)Nc3cccc4ccccc34)ccc2O1` the AC50 was 10.7 µM. For `CCS(=O)(=O)N1[C@H](CO)[C@@H](c2ccc(C#Cc3ccccc3F)cc2)[C@@H]1C#N`, the AC50 was > 20 µM (inactive). With `Cc1noc(C)c1S(=O)(=O)Nc1ccc2c(c1)CC(=O)N([C@@H](C)CO)C[C@@H](C)[C@@H](CN(C)Cc1ccc(Oc3ccccc3)cc1)O2` the AC50 was > 20 µM (inactive). `COc1ccc(/C=C\c2nc(=O)c3ccccc3o2)cc1` showed an AC50 of 6.79 µM. `CN1C(=O)/C(=N\OC(=O)c2cccc3ccccc23)c2ccccc21` gave an AC50 of 4.04 µM.
